Laboratory results published in PMC5225172 (Cancer Chemotherapy and Pharmacology, 2016).

Legend:
[1] = Phase I safety and tolerability: adverse events (NCI CTCAE v4.03), DLT, MTD; conditions: human, in vivo, iv
Experimental: (§1) Dosing on days 8 and 15 was permitted within a window of ±1 day if necessary, and dosing was considered missed if delayed by more than 1 day. Dose delays of up to 2 weeks were permitted for day 1 of cycle 2 or later, although for days 8 and 15 of cycle 2 and subsequent cycles, dosing within a window of ±3 days was permitted, except for in cycle 3, where dosing was to be administered within ±1 day of days 8 and 15.
(§2) Patients were enrolled into cohort 1 and were evaluated for the occurrence of a dose-limiting toxicity (DLT) as defined by the National Cancer Institute Common Terminology Criteria for Adverse Events version 4.03. […] Completion of cycle 1 in cohort 1 constituted study completion.
(§3) Protocol-defined DLTs included non-hematologic adverse events of grade ≥3. Hyperglycemia defined as a DLT was to be determined based on serum glucose values. Hematologic DLTs were defined as grade 4 neutropenia for ≥3 days, an absolute neutrophil count <1000 with fever ≥38.5 °C, and grade 4 thrombocytopenia. Patients with non-hematologic DLTs were to discontinue study treatment.
(§4) Screening comprised: provision of written, informed consent; demographics; baseline characteristics; concomitant medications; safety assessments (adverse events [defined as any new finding not present in the patient’s medical history, or a worsening of a prior medical history finding], vital signs, laboratory tests, physical examination, 12-lead electrocardiogram, multigated acquisition scan, or echocardiogram); tumor measurements by computed tomography or magnetic resonance imaging; disease assessment as defined by RECIST version 1.1; ophthalmologic examination; chest computed tomography; and ECOG PS assessment. The following assessments were also performed on cycle 1, day 1: safety; ECOG PS assessment; concomitant medications; blood samples for PK analysis; serum samples for glucose analysis; serum insulin; urinalysis; serum ketones; and post-dose echocardiogram. Safety assessments, blood pressure measurements, blood sampling for PK analysis, and urinalysis were also performed on days 8 and 15 of cycle 1.

[2] = test system: Japanese patients with advanced or refractory solid tumors; test: as above
Experimental: as §1, §2, §3, §4

clinical = conditions: human, in vivo
Experimental: Additional PK samples were collected at either 72, 96, or 120 h following the start of infusion. […] Blood pressure monitoring was performed every 5 min before dosing on cycle 1, day 1 until the observation of two consecutive measurements <150 mmHg (systolic) and <90 mmHg (diastolic). […] Serum samples for glucose analysis were collected immediately before the first infusion and in parallel with PK sampling through to 49 h post-dose. Glucose samples taken at 25 h post-dose were to be fasting, where possible and if deemed safe. Capillary blood glucose testing was to be performed for hyperglycemia management as determined appropriate by the investigator; hyperglycemia was defined as capillary blood glucose >200 mg/dL and was to be treated with short-acting insulin. Tumor measurement and disease assessment according to RECIST version 1.1 were conducted every two cycles by the investigator. This study was primarily a descriptive safety and tolerability trial, and no formal sample-size estimation was performed. Summary statistics were used for demographics, baseline characteristics, and PK parameters. Frequency tables were used for categorical variables.

[3] = test system: advanced solid tumors and non-Hodgkin's lymphoma; set-up: method as in PMID 27672108; conditions: cited from earlier work
class I PI3K = conditions: compared with the p110β and p110γ isoforms; cited from earlier work

SMILES: COc1c(OCCCN2CCOCC2)ccc2c1N=C(NC(=O)c1cnc(N)nc1)N1CCN=C21 [copanlisib, Copanlisib]
- MTD at 28 days [1]: 0.8 mg/kg
- Treatment-emergent AE of all grades, irrespective of causality: Flu-like symptoms ([2]; Cohort 1, 0.4 mg/kg (n = 3)): 0 n (%)
- Treatment-emergent AE of all grades, irrespective of causality: Flu-like symptoms ([2]; Cohort 2, 0.8 mg/kg (n = 7)): 2 (28.6) n (%)
- Treatment-emergent AE of all grades, irrespective of causality: Flu-like symptoms ([2]; Total (N = 10)): 2 (20.0) n (%)
- AEs leading to permanent discontinuation of study drug ([2]; human, in vivo): 2 (20.0) n (%)
- Adverse events leading to study discontinuation ([2]; human, in vivo): 20.0%
- Any AE ([2]; human, in vivo): 10 (100) n (%)
- Any drug-related AE ([2]; human, in vivo): 10 (100) n (%)
- Any serious AE ([2]; human, in vivo): 3 (30.0) n (%)
- Grade 3 AE ([2]; human, in vivo): 5 (50.0) n (%)
- Grade 3 drug-related AE ([2]; human, in vivo): 2 (20.0) n (%)
- Grade 3 hypertension ([2]; human, in vivo): no reports of grade 3 hypertension
- Grade 4 AE ([2]; human, in vivo): 1 (10.0) n (%)
- Hematologic and biochemical toxicity event: anemia ([2]; human, in vivo): 90.0%
- Hematologic and biochemical toxicity event: hypoalbuminemia ([2]; human, in vivo): 90.0%
- Hematologic and biochemical toxicity event: lymphocytopenia ([2]; human, in vivo): 90%
- TEAE of all grades irrespective of causality: constipation ([2]; human, in vivo): 50.0%
- TEAE of all grades irrespective of causality: hyperglycemia ([2]; human, in vivo): 80.0%
- TEAEs of grade 3 as worst grade ([2]; human, in vivo): 50.0%
- TEAEs of grade 3 as worst grade considered drug-related ([2]; human, in vivo): 20.0%
- Treatment-emergent AE of all grades, irrespective of causality: Acneiform rash ([2]; human, in vivo): 3 (30.0) n (%)
- Treatment-emergent AE of all grades, irrespective of causality: Anemia ([2]; human, in vivo): 3 (30.0) n (%)
- Treatment-emergent AE of all grades, irrespective of causality: Anorexia ([2]; human, in vivo): 3 (30.0) n (%)
- Treatment-emergent AE of all grades, irrespective of causality: Constipation ([2]; human, in vivo): 5 (50.0) n (%)
- Treatment-emergent AE of all grades, irrespective of causality: Cough ([2]; human, in vivo): 2 (20.0) n (%)
- Treatment-emergent AE of all grades, irrespective of causality: Fever ([2]; human, in vivo): 4 (40.0) n (%)
- Treatment-emergent AE of all grades, irrespective of causality: Hyperglycemia ([2]; human, in vivo): 8 (80.0) n (%)
- Treatment-emergent AE of all grades, irrespective of causality: Hypertension ([2]; human, in vivo): 7 (70.0) n (%)
- Treatment-emergent AE of all grades, irrespective of causality: Increased ALP ([2]; human, in vivo): 4 (40.0) n (%)
- Treatment-emergent AE of all grades, irrespective of causality: Increased ALT ([2]; human, in vivo): 3 (30.0) n (%)
- Treatment-emergent AE of all grades, irrespective of causality: Increased AST ([2]; human, in vivo): 2 (20.0) n (%)
- Treatment-emergent AE of all grades, irrespective of causality: Insomnia ([2]; human, in vivo): 2 (20.0) n (%)
- Treatment-emergent AE of all grades, irrespective of causality: Investigations, other ([2]; human, in vivo): 4 (40.0) n (%)
- Treatment-emergent AE of all grades, irrespective of causality: Leukopenia ([2]; human, in vivo): 4 (40.0) n (%)
- Treatment-emergent AE of all grades, irrespective of causality: Lymphocytopenia ([2]; human, in vivo): 4 (40.0) n (%)
- Treatment-emergent AE of all grades, irrespective of causality: Malaise ([2]; human, in vivo): 2 (20.0) n (%)
- Treatment-emergent AE of all grades, irrespective of causality: Nausea ([2]; human, in vivo): 3 (30.0) n (%)
- Treatment-emergent AE of all grades, irrespective of causality: Neutropenia ([2]; human, in vivo): 4 (40.0) n (%)
- Treatment-emergent AE of all grades, irrespective of causality: Oral mucositis ([2]; human, in vivo): 2 (20.0) n (%)
- Treatment-emergent AE of all grades, irrespective of causality: Pruritus ([2]; human, in vivo): 2 (20.0) n (%)
- Treatment-emergent AE of all grades, irrespective of causality: Tumor pain ([2]; human, in vivo): 4 (40.0) n (%)
- AEs leading to dose modification ([2]; human, in vivo, 28 days): 1 (33.3) n (%)
- Patients with dose-limiting toxicity (DLT) ([2]; human, in vivo, 28 days): No patients treated at 0.4 mg/kg experienced a dose-limiting toxicity
- Cases of colitis ([2]; in vivo): no cases of colitis
- Deaths on study ([2]; in vivo): No deaths on study were reported
- Hematologic and biochemical toxicity event: hyperglycemia ([2]; in vivo): all ten patients
- Hematologic and biochemical toxicity event: increased creatinine ([2]; in vivo): all ten patients
- Patients with dose-limiting toxicity (DLT) ([2]; in vivo): No patients experienced DLTs
- Patients with grade ≥3 elevated aminotransferase levels ([2]; in vivo): Two patients
- Relationship to study drug: grade 3 Anemia ([2]; in vivo): Not likely to be related
- Relationship to study drug: grade 3 Diarrhea ([2]; in vivo): Possibly related
- Relationship to study drug: grade 3 Hepatobiliary disorder ([2]; in vivo): Not likely to be related
- Relationship to study drug: grade 3 Hyperglycemia ([2]; in vivo): Possibly related
- Relationship to study drug: grade 3 Increased ALP ([2]; in vivo): Not likely to be related
- Relationship to study drug: grade 3 Increased ALT ([2]; in vivo): Not likely to be related
- Relationship to study drug: grade 3 Insomnia ([2]; in vivo): Not likely to be related
- Relationship to study drug: grade 3 Lymphocytopenia ([2]; in vivo): Possibly related
- Relationship to study drug: grade 3 Stroke ([2]; in vivo): Not likely to be related
- Relationship to study drug: grade 4 Increased AST ([2]; in vivo): Not likely to be related
- Grade 5 adverse events ([2]; irrespective of causality): No grade 5 adverse events were reported
- half-life (clinical; 0.4 mg/kg, Geometric mean terminal half-life): ~32 h
- half-life (clinical; 0.8 mg/kg, Geometric mean terminal half-life): ~36 h
- half-life (clinical; 0.8 mg/kg, Plasma half-life): 32 to 36 h
- AUC (clinical; iv, 0.4 mg/kg): 1400 ng·h/mL
- AUC(0-t) (clinical; iv, 0.4 mg/kg, AUC(0–8)): 483 ng·h/mL
- AUC(0-t) (clinical; iv, 0.4 mg/kg, AUC(0–25)): 789 ng·h/mL
- Cmax (clinical; iv, 0.4 mg/kg, C max): 215 ng/mL
- half-life (clinical; iv, 0.4 mg/kg, t 1/2 (half-life associated with terminal slope)): 32.2 h
- Tmax (clinical; iv, 0.4 mg/kg, tmax): 1.02 h
- AUC (clinical; iv, 0.8 mg/kg): 2350 ng·h/mL
- AUC(0–25) (clinical; iv, 0.8 mg/kg): 1290 (10.1) µg·h/L
- Tmax (clinical; iv, 0.8 mg/kg): 0.75 [0.48-1.05] h
- AUC(0-t) (clinical; iv, 0.8 mg/kg, AUC(0–8)): 812 ng·h/mL
- AUC(0-t) (clinical; iv, 0.8 mg/kg, AUC(0–25)): 1280 ng·h/mL
- half-life (clinical; iv, 0.8 mg/kg, t1/2 (half-life associated with terminal slope)): 35.6 h
- Tmax (clinical; iv, 0.8 mg/kg, tmax): 0.53 h
- Objective response rate ([3]; 25 patients in solid-tumor expansion cohort treated at the MTD): 12%
- Disease control rate ([3]; advanced solid-tumor expansion cohort): 44%
- Antitumor activity in patients with non-Hodgkin's lymphoma ([3]; first-in-human study): seven out of nine patients
- PI3K isoform preference (class I PI3K): preferential activity against the p110α and p110δ isoforms of PI3K
